Several values for one entry are separate records, joined by “and”; a condition that tells them apart may be missing. Equal entries are not always repeated. Where two headings read alike, the source gives them in different places.
Assay: Ocular tissue and plasma pharmacokinetics, 50 mg/kg BID oral, Dutch Belted rabbits (Example 4/5)
Format: in vivo
Details: for concentration at 96 h / concentration at 168 h / concentration at 0 h / concentration at 1 h / concentration at 6 h / concentration at 24 h / concentration at 240 h: 50 mg/kg
Description: Study design, including group designation and dose levels, are outlined in Table 15. […] Two Dutch Belted rabbits received vehicle only oral gavage doses for tolerability assessment. […] The dose volume was 5 mL/kg/dose for all groups. Safety was assessed with toxicological and ophthalmic examinations, including slit lamp biomicroscopy, indirect ophthalmoscopy, rebound tonometry, and ultrasonic corneal pachymetry.
For the pharmacokinetic determination, a single blood sample was taken from each rabbit from Groups 1 and 4 at one hour post-dose on Day 15, Group 2 at one hour post-dose on Day 8, and Group 3 at pre-dose, 1, 6, 24, 96, 168, and 240 hours post-dose on Day 15, with the eyes collected at the same time as blood sampling. Plasma, vitreous humor (VH), retina, choroid-retina pigmented epithelium (Choroid-RPE), optic nerve (ON), and iris-ciliary body (I-CB) were analyzed by LC-MS/MS to quantify test article concentrations. The lower limit of quantitation (LLOQ) in plasma and vitreous humor was 1.0 ng/mL. The LLOQ was 6.0 ng/g in retina, choroid-RPE, and I-CB and the optic nerve LLOQ was 15 ng/g, assuming tissue density of 1 g/mL where relevant. […]

[1] = male, Dutch Belted, po, Optic Nerve, DB rabbit, 50 mg/kg BID, Day 15
[2] = male, Dutch Belted, po, Plasma, DB rabbit, 50 mg/kg BID, Day 15
[3] = male, Dutch Belted, po, Retina, DB rabbit, 50 mg/kg BID, Day 15
[4] = male, Dutch Belted, po, Vitreous Humor, DB rabbit, 50 mg/kg BID, Day 15

CC(=O)c1nn(CC(=O)N2C[C@H](F)C[C@H]2C(=O)Nc2cccc(Br)n2)c2ccc(-c3cnc(C)nc3)cc12 [Compound 1, (2S,4R)-1-(2-(3-Acetyl-5-(2-methylpyrimidin-5-yl)-1H-indazol-1-yl)acetyl)-N-(6-bromopyridin-2-yl)-4-fluoropyrrolidine-2-carboxamide]
Cmax [1]: 1550 ng/g | MRT last [1]: 4.79 h | Tmax [1]: 1 h | half-life [1]: 7.82 h | AUC(0-inf) [2]: 10100 ng·h/mL | Cmax [2]: 2900 ng/mL | MRT last [2]: 4.73 h | Tmax [2]: 1 h | half-life [2]: 5.98 h | AUC(0-t) (male, Dutch Belted, po, Plasma, DB rabbit, 50 mg/kg BID, Day 15, read-out: AUC0-t): 9790 ng·h/mL | Cmax [3]: 2120 ng/g | MRT last [3]: 53.2 h | Tmax [3]: 1 h | half-life [3]: 96.1 h | Cmax [4]: 49.2 ng/g and 49.2 ng/mL | MRT last [4]: 7.27 h | Tmax [4]: 1 h | half-life [4]: 5.44 h | AUC(0-t) (male, Dutch Belted, po, Vitreous Humor, DB rabbit, 50 mg/kg BID, Day 15, read-out: AUClast): 419 ng·h/mL | concentration at 96 h (male, Dutch Belted, rabbit, choroid-RPE, oral, DB rabbits, Day 15, 50 mg/kg BID, 96 hr, read-out: Mean Choroid-RPE Concentration): 873 ng/g | concentration at 168 h (male, Dutch Belted, rabbit, choroid-RPE, oral, DB rabbits, Day 15, 50 mg/kg BID, 168 hr, read-out: Mean Choroid-RPE Concentration): 645 ng/g | concentration at 0 h (male, Dutch Belted, rabbit, choroid-RPE, po, DB rabbit, 50 mg/kg BID oral, Day 15, 0 h, read-out: Mean Choroid-RPE concentration): 3920 ng/g | concentration at 1 h (male, Dutch Belted, rabbit, choroid-RPE, po, DB rabbit, 50 mg/kg BID oral, Day 15, 1 h, read-out: Mean Choroid-RPE concentration): 8020 ng/g | concentration at 6 h (male, Dutch Belted, rabbit, choroid-RPE, po, DB rabbit, 50 mg/kg BID oral, Day 15, 6 h, read-out: Mean Choroid-RPE concentration): 4370 ng/g | concentration at 24 h (male, Dutch Belted, rabbit, choroid-RPE, po, DB rabbit, 50 mg/kg BID oral, Day 15, 24 h, read-out: Mean Choroid-RPE concentration): 2100 ng/g | concentration at 240 h (male, Dutch Belted, rabbit, choroid-RPE, po, DB rabbit, 50 mg/kg BID oral, Day 15, 240 h, read-out: Mean Choroid-RPE concentration): 194 ng/g | concentration at 0 h (male, Dutch Belted, rabbit, iris-ciliary body, po, DB rabbit, 50 mg/kg BID oral, Day 15, 0 h, read-out: Mean Iris-Ciliary Body concentration): 5080 ng/g | concentration at 1 h (male, Dutch Belted, rabbit, iris-ciliary body, po, DB rabbit, 50 mg/kg BID oral, Day 15, 1 h, read-out: Mean Iris-Ciliary Body concentration): 11500 ng/g | concentration at 6 h (male, Dutch Belted, rabbit, iris-ciliary body, po, DB rabbit, 50 mg/kg BID oral, Day 15, 6 h, read-out: Mean Iris-Ciliary Body concentration): 8820 ng/g | concentration at 24 h (male, Dutch Belted, rabbit, iris-ciliary body, po, DB rabbit, 50 mg/kg BID oral, Day 15, 24 h, read-out: Mean Iris-Ciliary Body concentration): 5560 ng/g | concentration at 96 h (male, Dutch Belted, rabbit, iris-ciliary body, po, DB rabbit, 50 mg/kg BID oral, Day 15, 96 h, read-out: Mean Iris-Ciliary Body concentration): 2840 ng/g | concentration at 168 h (male, Dutch Belted, rabbit, iris-ciliary body, po, DB rabbit, 50 mg/kg BID oral, Day 15, 168 h, read-out: Mean Iris-Ciliary Body concentration): 2290 ng/g | concentration at 240 h (male, Dutch Belted, rabbit, iris-ciliary body, po, DB rabbit, 50 mg/kg BID oral, Day 15, 240 h, read-out: Mean Iris-Ciliary Body concentration): 1620 ng/g | concentration at 0 h (male, Dutch Belted, rabbit, optic nerve, po, DB rabbit, 50 mg/kg BID oral, Day 15, 0 h, read-out: Optic Nerve concentration): 45.3 ng/g | concentration at 1 h (male, Dutch Belted, rabbit, optic nerve, po, DB rabbit, 50 mg/kg BID oral, Day 15, 1 h, read-out: Optic Nerve concentration): 1550 ng/g | concentration at 6 h (male, Dutch Belted, rabbit, optic nerve, po, DB rabbit, 50 mg/kg BID oral, Day 15, 6 h, read-out: Optic Nerve concentration): 133 ng/g | concentration at 24 h (male, Dutch Belted, rabbit, optic nerve, po, DB rabbit, 50 mg/kg BID oral, Day 15, 24 h, read-out: Optic Nerve concentration): 27 ng/g | concentration at 0 h (male, Dutch Belted, rabbit, plasma, po, DB rabbit, 50 mg/kg BID oral, Day 15, 0 h, read-out: Mean plasma concentration): 104 ng/mL | concentration at 1 h (male, Dutch Belted, rabbit, plasma, po, DB rabbit, 50 mg/kg BID oral, Day 15, 1 h, read-out: Mean plasma concentration): 2900 ng/mL | concentration at 6 h (male, Dutch Belted, rabbit, plasma, po, DB rabbit, 50 mg/kg BID oral, Day 15, 6 h, read-out: Mean plasma concentration): 320 ng/mL | concentration at 24 h (male, Dutch Belted, rabbit, plasma, po, DB rabbit, 50 mg/kg BID oral, Day 15, 24 h, read-out: Mean plasma concentration): 39.9 ng/mL | concentration at 0 h (male, Dutch Belted, rabbit, retina, oral, DB rabbits, Day 15, 50 mg/kg BID, 0 hr, read-out: Mean Retina Concentration): 159 ng/g | concentration at 1 h (male, Dutch Belted, rabbit, retina, oral, DB rabbits, Day 15, 50 mg/kg BID, 1 hr, read-out: Mean Retina Concentration): 2120 ng/g | concentration at 6 h (male, Dutch Belted, rabbit, retina, oral, DB rabbits, Day 15, 50 mg/kg BID, 6 hr, read-out: Mean Retina Concentration): 725 ng/g | concentration at 24 h (male, Dutch Belted, rabbit, retina, oral, DB rabbits, Day 15, 50 mg/kg BID, 24 hr, read-out: Mean Retina Concentration): 265 ng/g | concentration at 96 h (male, Dutch Belted, rabbit, retina, oral, DB rabbits, Day 15, 50 mg/kg BID, 96 hr, read-out: Mean Retina Concentration): 32.3 ng/g | concentration at 168 h (male, Dutch Belted, rabbit, retina, oral, DB rabbits, Day 15, 50 mg/kg BID, 168 hr, read-out: Mean Retina Concentration): 54.9 ng/g | concentration at 240 h (male, Dutch Belted, rabbit, retina, oral, DB rabbits, Day 15, 50 mg/kg BID, 240 hr, read-out: Mean Retina Concentration): 39.4 ng/g | concentration at 0 h (male, Dutch Belted, rabbit, retina, po, DB rabbit, 50 mg/kg BID oral, Day 15, 0 h, read-out: Mean retina concentration): 159 ng/g | concentration at 1 h (male, Dutch Belted, rabbit, retina, po, DB rabbit, 50 mg/kg BID oral, Day 15, 1 h, read-out: Mean retina concentration): 2120 ng/g | concentration at 6 h (male, Dutch Belted, rabbit, retina, po, DB rabbit, 50 mg/kg BID oral, Day 15, 6 h, read-out: Mean retina concentration): 725 ng/g | concentration at 24 h (male, Dutch Belted, rabbit, retina, po, DB rabbit, 50 mg/kg BID oral, Day 15, 24 h, read-out: Mean retina concentration): 265 ng/g | concentration at 96 h (male, Dutch Belted, rabbit, retina, po, DB rabbit, 50 mg/kg BID oral, Day 15, 96 h, read-out: Mean retina concentration): 32.3 ng/g | concentration at 168 h (male, Dutch Belted, rabbit, retina, po, DB rabbit, 50 mg/kg BID oral, Day 15, 168 h, read-out: Mean retina concentration): 54.9 ng/g | concentration at 240 h (male, Dutch Belted, rabbit, retina, po, DB rabbit, 50 mg/kg BID oral, Day 15, 240 h, read-out: Mean retina concentration): 39.3 ng/g | concentration at 0 h (male, Dutch Belted, rabbit, vitreous humor, po, DB rabbit, 50 mg/kg BID oral, Day 15, 0 h, read-out: Vitreous concentration): 2.91 ng/g | concentration at 1 h (male, Dutch Belted, rabbit, vitreous humor, po, DB rabbit, 50 mg/kg BID oral, Day 15, 1 h, read-out: Vitreous concentration): 49.2 ng/g | concentration at 6 h (male, Dutch Belted, rabbit, vitreous humor, po, DB rabbit, 50 mg/kg BID oral, Day 15, 6 h, read-out: Vitreous concentration): 28.7 ng/g | concentration at 24 h (male, Dutch Belted, rabbit, vitreous humor, po, DB rabbit, 50 mg/kg BID oral, Day 15, 24 h, read-out: Vitreous concentration): 2.9 ng/g | Tlast (plasma, DB rabbit, 50 mg/kg BID, Day 15): 24 h | C-RPE drug concentration at least 10 days following the last oral administration (rabbit, 50 mg/kg BID): 196 ng/mL

Source: patent US20230126447A1, “OCULAR DRUG DEPOT FOR COMPLEMENT-MEDIATED DISORDERS” (priority 2020, published 2023)
